Laboratory results as given in patent US20090318468A1, “PYRAZOLE COMPOUNDS 436” (AstraZeneca AB, priority 2008, published 2009).
Values joined by “and” are separate entries in the source; they are usually repeats but may differ in a detail not shown here. Equal values may be shown once.

Tests used:
FGFR4 [1] = target: T1, FGFR4 (Homo sapiens, UniProt P22455); assay: FGFR4 Kinase Assay - Caliper; type: biochemical; conditions: 30 μM ATP, separate test occasions listed, read-out: IC50 (inhibition of FGFR4 kinase activity)
Experimental: FGFR4 Kinase Assay—Caliper
To determine inhibition of FGFR4 activity, kinase assays were conducted using Caliper technology. FGFR4 enzyme was used (8 μM, Cat. No. PR4380B, Invitrogen). Kinase activity assays were performed in Greiner 384-well low volume plates, with a total reaction volume of 12 μL per well. The final concentration of FGFR4 active kinase in each reaction well was 25 nM. The substrate for each assay was a custom peptide with fluorescent tag (13 amino acids in length, 5FAM-[…]—CONH2) the sequence of which was specific for FGFR4 kinase.
Compounds were serially diluted in 5% (v/v) DMSO, before being added to assay plates. The Enzyme (at 25 nM (final)) and Substrate (at 1.5 μM (final)) were added separately to the compound plates, in reaction buffer (comprising: 100 mM HEPES—pH 7.5, 0.004% Triton, 1 mM DTT (final), 10 mM MnCl2 (final), 30 μM ATP (final)) resulting in a final DMSO concentration in the reaction mix of 0.8%.
Assay plates were incubated at RT for 2 hours, before the reaction was stopped with the addition of buffer (comprising: 100 mM HEPES—pH7.5, 0.033% Brij-35, 0.22% Caliper Coating Reagent #3, 40 mM EDTA, 5% DMSO). Stopped assay plates were then read using the Caliper LabChip™ LC3000 (which uses microfludics to measure a shift in mobility between fluorescent labelled peptide and the FGFR4 kinase—phosphorylated form of this peptide). […]

FGFR4 [2] = target: T1, FGFR4; assay: Cell FGFR4 (ECHO) Assay: inhibition of transiently expressed FGFR4 phosphorylation in Cos-1 cells; type: cell-based; parameters: expressed in transfected cells; host or cells: Cos-1; conditions: Cos-1 cells transiently expressing FGFR4, 1 hour incubation; read-out: IC50 (inhibition of phosphorylated FGFR4)
From the text: Cell based inhibition of transiently expressed FGFR4 phosphorylation via use of ECHO technology (measured using phospho-specific primary and fluorescent secondary antibodies).
This assay is designed to detect inhibitors of transiently expressed FGFR4 phosphorylation by antibody staining of fixed cells detected using ArrayScan technology. Cos-1 cells were routinely passaged in DMEM (Gibco BRL, 41966) plus 3% foetal calf serum (FCS), 1% L-glutamine (Gibco BRL, 25030) to a confluence of 80%. To undertake the assay, Cos-1 cells were harvested at 90-95% confluence for cell transfection. For each 96-well plate, 24 μL Lipofectamine 2000 was added to 809 μL OptiMEM and incubated at room temperature for 5 minutes. For each 96 well plate, 20 μg 3′ FLAG tagged FGFR4/pcDNA3.1 (MSD 6273) was diluted with OptiMEM to a total volume of 833 μL. Equal volumes of DNA and Lipofectamine 2000 were combined (DNA:Lipid=1:1.2 ratio) and incubated at room temperature for 20 minutes.
The harvested Cos-1 cells are counted using a coulter counter and diluted further with 1% FCS/DMEM to 1.2×10^5 cells/mL. For each 96-well, 8.33 mL cells were required. […]
Media was removed from the wells using vacuum aspiration; cells were fixed by adding 50 μL of 100% methanol to each well and incubated at room temperature for 20 minutes. […] The plates were read on an Arrayscan (Cellomics). […]

T1 sequence (P22455 22-802): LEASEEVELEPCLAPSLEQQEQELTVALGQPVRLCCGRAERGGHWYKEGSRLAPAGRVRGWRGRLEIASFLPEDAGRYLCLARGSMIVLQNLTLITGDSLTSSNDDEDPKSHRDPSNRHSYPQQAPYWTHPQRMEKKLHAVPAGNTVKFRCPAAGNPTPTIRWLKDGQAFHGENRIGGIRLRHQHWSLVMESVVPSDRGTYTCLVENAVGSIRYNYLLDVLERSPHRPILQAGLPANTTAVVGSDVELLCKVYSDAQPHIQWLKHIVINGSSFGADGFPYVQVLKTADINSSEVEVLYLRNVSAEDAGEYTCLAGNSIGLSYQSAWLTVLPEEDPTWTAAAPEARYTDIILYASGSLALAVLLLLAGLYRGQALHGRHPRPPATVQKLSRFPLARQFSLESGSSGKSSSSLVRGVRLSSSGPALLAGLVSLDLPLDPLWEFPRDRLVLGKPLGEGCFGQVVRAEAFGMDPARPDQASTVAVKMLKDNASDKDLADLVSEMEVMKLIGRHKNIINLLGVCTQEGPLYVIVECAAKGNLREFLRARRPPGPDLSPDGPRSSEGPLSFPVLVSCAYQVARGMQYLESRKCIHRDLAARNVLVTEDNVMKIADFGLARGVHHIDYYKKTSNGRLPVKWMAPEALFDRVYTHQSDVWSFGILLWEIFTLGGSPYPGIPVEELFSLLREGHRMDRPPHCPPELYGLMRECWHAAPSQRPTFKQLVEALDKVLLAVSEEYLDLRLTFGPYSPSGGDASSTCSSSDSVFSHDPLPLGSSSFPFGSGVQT

For `COc1cc(CCc2cc(NC(=O)c3ccc(N4CCN(C)[C@H](C)C4)cc3)[nH]n2)cc(OC)c1` [Example 1b, (R)—N-(3-(3,5-Dimethoxyphenethyl)-1H-pyrazol-5-yl)-4-(3,4-dimethylpiperazin-1-yl)benzamide], the IC50 (FGFR4 [1]) was 22 nM and 16 nM (2×) and the IC50 (FGFR4 [2]) was 29 nM and 33 nM and 45 nM and 28 nM.
